Data as given in ChEMBL document CHEMBL1136167, “Prediction of hERG potassium channel affinity by traditional and hologram qSAR methods” (Bioorg Med Chem Lett, 2003).

Target: T1, Voltage-gated inwardly rectifying potassium channel KCNH2 (Homo sapiens, UniProt Q12809)
Assay: Inhibition of human Potassium channel HERG expressed in mammalian cells
Conditions: not given

T1 sequence (Q12809 whole entry): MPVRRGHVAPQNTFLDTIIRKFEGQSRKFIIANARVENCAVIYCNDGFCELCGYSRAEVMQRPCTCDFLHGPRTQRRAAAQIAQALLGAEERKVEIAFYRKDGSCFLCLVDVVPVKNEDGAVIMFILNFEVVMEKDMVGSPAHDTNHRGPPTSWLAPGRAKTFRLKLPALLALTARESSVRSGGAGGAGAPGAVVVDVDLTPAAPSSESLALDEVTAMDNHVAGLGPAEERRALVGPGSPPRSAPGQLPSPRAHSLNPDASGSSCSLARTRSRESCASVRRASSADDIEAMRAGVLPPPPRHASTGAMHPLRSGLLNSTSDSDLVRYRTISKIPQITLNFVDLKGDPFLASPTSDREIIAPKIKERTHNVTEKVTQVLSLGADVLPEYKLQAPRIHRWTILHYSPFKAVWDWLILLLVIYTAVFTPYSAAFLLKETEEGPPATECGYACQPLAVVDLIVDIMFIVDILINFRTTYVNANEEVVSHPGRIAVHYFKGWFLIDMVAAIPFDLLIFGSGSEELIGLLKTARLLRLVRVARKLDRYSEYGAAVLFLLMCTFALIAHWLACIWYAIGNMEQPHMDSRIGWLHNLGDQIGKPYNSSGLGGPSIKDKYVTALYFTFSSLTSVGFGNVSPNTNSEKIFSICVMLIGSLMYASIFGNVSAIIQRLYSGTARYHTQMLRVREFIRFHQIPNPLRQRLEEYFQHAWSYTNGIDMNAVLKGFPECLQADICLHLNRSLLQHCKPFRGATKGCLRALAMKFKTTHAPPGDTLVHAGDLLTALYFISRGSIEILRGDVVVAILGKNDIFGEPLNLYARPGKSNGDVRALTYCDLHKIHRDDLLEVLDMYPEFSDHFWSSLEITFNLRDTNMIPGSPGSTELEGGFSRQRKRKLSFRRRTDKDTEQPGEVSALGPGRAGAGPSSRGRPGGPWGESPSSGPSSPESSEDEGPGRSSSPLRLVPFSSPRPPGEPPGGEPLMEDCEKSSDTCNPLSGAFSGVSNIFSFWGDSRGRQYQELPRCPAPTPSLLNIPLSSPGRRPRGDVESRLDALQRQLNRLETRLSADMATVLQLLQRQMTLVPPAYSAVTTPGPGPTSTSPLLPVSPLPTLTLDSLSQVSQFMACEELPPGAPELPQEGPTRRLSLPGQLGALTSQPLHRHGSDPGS

Row | Structure (SMILES) | IC50
1 | C[C@@H]1CN(c2c(F)c(N)c3c(=O)c(C(=O)O)cn(C4CC4)c3c2F)C[C@H](C)N1 [SPARFLOXACIN] | 18.2 µM
2 | COc1ccc(C2CCN(CCC3CCOc4ccccc43)CC2)cc1OC (centres undefined) | 0.2 µM
3 | O=C(O[C@H]1C[C@@H]2C[C@@H]3C[C@@H](C1)N2CC3=O)C1CNc2ccccc21 (some centres undefined) | 5.89 µM
4 | COc1ccc(C2CCN(CC[C@H]3CCOc4ccccc43)CC2)cc1OC [TERIKALANT] | 0.251 µM
5 | CCOC(=O)C1=C(C)NC(C)=C(C(=O)OC)C1c1cccc([N+](=O)[O-])c1 (centres undefined) [NITRENDIPINE] | 10 µM
6 | COc1ccc(C(=O)N2CCN(c3ccc4c(c3)CCC(=O)N4)CC2)cc1OC [VESNARINONE] | 1.1 µM
7 | Cc1cc2c(s1)Nc1ccccc1N=C2N1CCN(C)CC1 [OLANZAPINE] | 0.182 µM
8 | CN1CCC[C@H]1c1cccnc1 [NICOTINE] | 245 µM
9 | Oc1ccc(CCN2CCC(Nc3nc4ccccc4n3Cc3ccc(F)cc3)CC2)cc1 [DESMETHEYLASTEMIZOLE] | 0.001 µM
10 | COc1c(N2CCNC(C)C2)c(F)cc2c(=O)c(C(=O)O)cn(C3CC3)c12 (centres undefined) [GATIFLOXACIN] | 129 µM
11 | CC[C@H]1OC(=O)[C@H](C)[C@@H](O[C@H]2C[C@@](C)(OC)[C@@H](O)[C@H](C)O2)[C@H](C)[C@@H](O[C@@H]2O[C@H](C)C[C@H](N(C)C)[C@H]2O)[C@](C)(OC)C[C@@H](C)C(=O)[C@H](C)[C@@H](O)[C@]1(C)O [CLARITHROMYCIN] | 58.9 µM
12 | CN(c1nccc(=O)[nH]1)C1CCN(c2nc3ccccc3n2Cc2ccc(F)cc2)CC1 [MIZOLASTINE] | 0.437 µM

Same assay, conditions: human

Row | Structure (SMILES) | pIC50
13 | Cc1c(F)c(N2CCNC(C)C2)cc2c1c(=O)c(C(=O)O)cn2C1CC1 (centres undefined) [GREPAFLOXACIN] | […]

Target: T1, Voltage-gated inwardly rectifying potassium channel KCNH2
Assay: Inhibition of K+ channel activity in mammalian cells expressing HERG Kv11.1
Format: cell-based
Conditions: not given

Row | Structure (SMILES) | IC50
14 | CC[C@H]1OC(=O)[C@H](C)[C@@H](O[C@H]2C[C@@](C)(OC)[C@@H](O)[C@H](C)O2)[C@H](C)[C@@H](O[C@@H]2O[C@H](C)C[C@H](N(C)C)[C@H]2O)[C@](C)(OC)C[C@@H](C)C(=O)[C@H](C)[C@@H](O)[C@]1(C)O [CLARITHROMYCIN] | 33.1 µM
